The record followed here is patent publication US20130158080A1, “METHODS FOR TREATING HYPERTENSION IN BLACK PATIENTS” (Takeda Pharmaceuticals U.S.A., Inc., priority 2011, published 2013).

For this data set, the system named is subjects with moderate to severe hypertension. Briefly: Same study: safety and tolerability (adverse events, laboratory tests, discontinuations). Set-up: species or system human. The following applies: in vivo. An excerpt:
Randomization was stratified by subject's race: Black and non-Black. Before initiation of treatment, all subjects participated in a 2-week, single-blind, placebo Run-in Period (Days −14 to −1). […] Subjects taking previous antihypertensive agents were required to participate in a 3 week Washout Period (Days −21 to −1).
Safety variables included adverse events, vital signs (including orthostatic vital signs), 12-lead electrocardiogram (ECG) findings, and clinical laboratory test results.
Treatment-emergent adverse events (TEAEs) were tabulated, and vital signs and 12-lead ECG findings were summarized with descriptive statistics. All safety data were presented in the listings.

For the substance “azilsartan medoxomil potassium plus chlorthalidone [TAK-491CLD]”, the “Mean increases in serum creatinine, blood urea nitrogen, and serum uric acid” value is listed as “more common”.
